Assay results reported in patent US10617664B2, “Brain derived PPARα ligands” (Rush University Medical Center, priority 2015, dated 2020).

Legend:
Y464D-PPARα = target: T1, Y464D-PPARα (Mus musculus, UniProt P23204, Y464D); test: Thermal shift assay, Y464D-PPARα with ligands; format: binding
T1 construct: the entire mouse GFP-Ppara gene (GFP-FLPpara) and three different mutated genes were cloned; GFP; made in house; host or cells: not clearly stated (lentivirus packaged in HEK293FT cells)
T1 sequence (P23204 1-468 Y464D): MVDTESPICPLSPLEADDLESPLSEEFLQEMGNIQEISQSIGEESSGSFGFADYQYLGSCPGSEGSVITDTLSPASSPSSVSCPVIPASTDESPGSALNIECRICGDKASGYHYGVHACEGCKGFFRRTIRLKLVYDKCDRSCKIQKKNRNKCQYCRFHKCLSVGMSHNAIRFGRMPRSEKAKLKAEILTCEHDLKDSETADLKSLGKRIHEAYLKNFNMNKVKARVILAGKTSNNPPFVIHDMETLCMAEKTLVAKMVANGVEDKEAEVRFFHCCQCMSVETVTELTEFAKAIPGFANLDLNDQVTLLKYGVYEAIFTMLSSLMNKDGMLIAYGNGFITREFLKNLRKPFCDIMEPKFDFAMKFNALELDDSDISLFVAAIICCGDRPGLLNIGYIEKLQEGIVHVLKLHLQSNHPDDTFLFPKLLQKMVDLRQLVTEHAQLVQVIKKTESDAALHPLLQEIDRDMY
Description: Lentivirus-mediated de novo expression studies were performed, where wild type full-length (GFP-FLPpara) was overexpressed and three different LBD-mutated PPARα (GFP-Y314D, GFP-Y464D and GFP-Y314D/Y464D Ppara) recombinant proteins (FIG. 9D) were expressed in neurons followed by binding analyses with three endogenous ligands. Briefly, site directed mutagenesis was performed in the mouse PPARα with Y314 and Y464 residues replaced separately or together with aspartate (D). After that, the entire mouse GFP-Ppara gene (GFP-FLPpara) and three different mutated genes were cloned in the pLenti6/V5-TOPO lentiviral expression vector (FIG. 3D), packaged in lentivirus particle with HEK293FT cells, purified full length and mutated PPARα proteins in a GFP-affinity column, and finally thermal shift assays were performed in order to analyze their conformational stability. […] After 48 h of transduction, the cells were homogenized, passed through GFP-affinity column, eluted, fractionated with chloroform-methanol, and finally analyzed by GC-MS for the detection of ligands. […] On the other hand, mutation of the Y464 completely knocked down the ligand binding affinity as we observed profound loss of ligand binding in both lenti-GFP-Y464D-Ppara (FIG. 3K, FIG. 9K) and lenti-GFP-Y314D/Y464D-Ppara (FIG. 3L, FIG. 9L)-transduced Ppara-null neurons. Throughout these analyses, we used 2,4-bis (α, α-dimethyl benzyl) phenol as an internal standard (Supplementary FIG. 5A-F). We normalized peak area of different ligands with that of internal standard and then quantified the binding affinity of these ligands with different construct of PPARα by peak integration statistics (Table 1).
Thermal shift assays were performed in Applied Biosystems 7500 standard real-time thermal cycler machine with commercially available thermal shift dye kit (Life technologies; Cat #4461146). For each reaction, purified protein (0.5 μg to 1 μg) was added to 18 μL of thermal shift buffer provided with the kit, and 1-2 μL of dye. […]

astrocytes = test: MTT cell viability in PPRE-luciferase transfected astrocytes; format: cell-based, mouse; details: higher concentrations
Description: Astrocytes plated at 60-70% confluence were transfected with tk-PPREx3-Luc, a PPRE-dependent luciferase reporter construct. After 24 h of transfection, cells were treated with different concentrations of HEX (FIG. 10A), OCT (FIG. 10B) and HMB (FIG. 10C) for 4 h followed by monitoring luciferase activity. Under similar experimental condition, MTT was performed to understand the effect of these ligands on cell viability (FIG. 10D, HEX; FIG. 10E, OCT; FIG. 10F, HMB). Results are mean±SD of three independent experiments. ^ap<0.001 vs. control. Ppara-null astrocytes were transduced with lentivirions containing empty vector (FIG. 10G), FL-Ppara (FIG. 10H), Y314D-Ppara (FIG. 10I), Y464D-Ppara (FIG. 10J), and Y314D/Y464D-Ppara (FIG. 10K) for 48 h followed by transfection with tk-PPREx3-Luc. After 24 h of transfection, cells were treated with different doses of HEX, OCT and HMB for 4 h followed by monitoring luciferase activity. PPRE luciferase activity was assayed in Ppara-null astrocytes transduced with lentivirions containing empty vector (FIG. 10L), FL-Ppara (FIG. 10M), Y314D-Ppara (FIG. 10N), Y464D-Ppara (FIG. 10O), and Y314D/Y464D-Ppara (FIG. 10P) after treatment with different doses of WY14643, fenofibrate, and clofibrate. PPRE luciferase activity was assayed in primary hippocampal neurons transduced with lentivirions containing empty vector (FIG. 10Q), FL-Ppara (FIG. 10R), Y314D-Ppara (FIG. 10S), Y464D-Ppara (FIG. 10T), and Y314D/Y464D-Ppara (FIG. 10U) after treatment with different doses of HEX, OCT and HMB. Results are mean±SD of three independent experiments. ^ap<0.001 vs. control.

Row | Compound | effect on Tm of Y464D-PPARα (Y464D-PPARα) | cytotoxicity (MTT) (astrocytes)
1 | CCOC(=O)C(C)(C)C(C)O (stereo not drawn) [HMB] | did not alter the Tm | significant level of cytotoxicity
2 | CCCCCCCCC=CCCCCCCCC(N)=O [OCT, 9-octadecenamide] | did not alter the Tm | significant level of cytotoxicity
3 | CCCCCCCCCCCCCCCC(N)=O [HEX, hexadecanamide] | did not alter the Tm | significant level of cytotoxicity
